Experimental data from patent US20020161052A1, “Terminally-branched polymeric linkers and polymeric conjugates containing the same” (priority 2001, published 2002).

Columns and labels:
[1] = system: P388/O (murine lymphoid neoplasm) cell line; assay: In vitro bioassay, cell growth by Alamar Blue; assay type: cell-based; conditions: Mus musculus, 72 h; P388/O cells, three days, 37° C., in duplicate; SD ± 10%
Procedure: A series of in vitro assays were conducted to determine the IC50 for unmodified Ara-C and compound 10 using the P388/O (murine lymphoid neoplasm, Southern Research Institute) cell line. The P388/0 cells were grown in RPMI 1640 medium (Whittaker Bioproducts, Walkersville, Md.) +10% FBS (Hyclone Inc., Logan UT). Bioassays were performed in their respective media containing antibiotics and fungizone.
Ara-C was dissolved in DMSO and diluted to the appropriate concentration in culture media. The PEG-Ara-C compounds were dissolved in water and diluted to the appropriate concentrations in culture media.
The assays were performed in duplicate in 96-well microtiter cell culture plates. Two fold serial dilution of the compounds were done in the microtiter plates. Cells were detached by incubating with 0.1% Trypsin/Versene at 37°. Trypsin was inactivated by adding the appropriate media for each cell line containing 10% FBS. To each well of the microtiter plates, 10,000 cells were added. After three days, cell growth was measured by addition of a metabolic indicator dye, Alamar Blue, according to the manufacturer's protocol. The IC50 value for the test compounds and reference compound are provided above in the Table.

LX-1 = LX-1 subcutaneous tumor in athymic nude mice; assay type: in vivo; conditions: 100 mg/kg, i.v. q3d×4, athymic nude mice; mean baseline tumor volume 1000 mm^3
Procedure: Athymic nude mice were implanted subcutaneous with a 4-5 mm^3 tissue fragment of LX-1 collected from donor mice. The tumor trocar site was observed twice weekly and measured once palpable. The tumor volume for each mouse was determined by measuring two dimensions with calipers and calculated using the formula: tumor volume=(length×width^2)/2. […] The mice were sorted to evenly distribute tumor size, grouped into 4 to 6 mice/group, and ear punched for permanent identification. Drugs were administered intravenously q3d×4 (Day 1, 4, 7 and 10) via the tail vein at an approximate rate of 0.5 mL per minute.

Nc1ccn([C@@H]2O[C@H](CO)[C@@H](O)[C@@H]2O)c(=O)n1 [Ara-C, cytosine arabinoside]
IC50 [1]: 10 nM
LX-1 % T/C (LX-1): 74.0%
